From patent publication US9180160B2, “Complement inhibitors for treatment of injury from intracerebral hemorrhage” (The Trustees of the University of Pennsylvania, priority 2008, dated 2015)
Values joined by “and” are separate entries in the source; they are usually repeats but may differ in a detail not shown here. Identical values can stand only once. “Also recorded” adds a separate entry of the source.

Tests used:
[1] = tested on: C57BL/6J mice subjected to ICH; experiment: Brain water content (edema) after ICH; format: in vivo; settings: for brain water content versus vehicle: 1 mg/kg i.p. first at 6 h and 12 h after ICH
Procedure: (§1) Animal Preparation and Intracerebral Infusion. Adult male C57BL/6J mice weighing 23-30 g were used. Mice were randomized to receive intraperitoneal injection of either C3aRA (1 mg/kg) (SB290157, Calbiochem, Darmstadt, Germany) diluted in PBS and DMSO (1.16% v/v), or an equal volume of vehicle (PBS and DMSO, 1.16% DMSO v/v) either 45 minutes prior to ICH induction or 6 and 12 hours after induction of ICH, followed in both cohorts by twice daily doses for 72 hours. […] Sham animals were given PBS and DMSO (1.16% v/v) in the same manner.
Mice were anesthetized with a single intraperitoneal dose of ketamine (90 mg/kg) and xylazine (5 mg/kg). Next, the mice were placed in a stereotactic frame (ASI Instruments, Inc., Warren, Mich., USA) and subjected to ICH using autologous blood infusion as previously described (Rynkowski M A et al, 2008, Nat Protoc 3: 122-128), Briefly, a 1-mm burr hole was drilled 2.3 mm lateral to the midline and 0.2 mm anterior to the bregma. Thirty μL of autologous whole blood were drawn from the tail artery into a capillary tube. A 30-gauge needle was then advanced stereotactically through the burr hole into the right striatum (coordinates: 0.2 mm anterior, 2.3 mm lateral to the bregma, 3.5 mm ventral). Using a microinfusion pump (KDS220, KD Scientific Inc., Holliston, Mass., USA), 5 μL was delivered at a rate of 1.5 μL per minute. After a 7-minute period, an additional 25 μL was delivered at a constant rate of 1.5 μL per minute. After a period of 10 minutes, the needle was slowly removed, the burr hole was occluded with bone wax and the skin incision was closed with Nexaband® (Abbott Laboratories, North Chicago, Ill.). Sham animals received only needle insertion. Rectal temperature was maintained at 37.0° C. using a feedback-controlled heating lamp, and the animals recovered in a temperature-controlled incubator for 45 minutes post-procedure.
Determination of brain water content. Mice were reanesthetized with Ketamine (80-100 mg/kg i.p.), Xylazine (5-10 mg/kg i.p.) and sacrificed 3 days post-hemorrhage to determine brain water content (sham vehicle n=8 Pre-C3aRA n=8, Post-C3aRA n=11). Brains were removed immediately en bloc and five 2-mm coronal slices were obtained beginning 2-mm from the frontal pole. The brain slices were divided into two hemispheres along the midline. The cortex of each hemisphere was then carefully dissected from the basal ganglia. The cerebellum was retained as a control. Each of the five sections was then weighed on an electronic analytical balance (Model AG 104, Mettler-Toledo, Inc., Columbus, Ohio, USA) to determine the wet weight. The sections were then placed onto pre-weighed cover slips and dried overnight in a vacuum oven for 24 hours to obtain the dry weight. Brain water content (%) was calculated as: ((wet weight-dry weight)/wet weight)×100.
Animal Preparation and Intracerebral Infusion. Adult male C57BL/6J mice weighing 23-30 g were randomized to receive intraperitoneal injection of either C3aRA (1 mg/kg) (SB290157, Calbiochem, Darmstadt, Germany), C5aRA (1 mg/kg), combined C3aRA and C5aRA or an equal volume of DMSO. Each drug was diluted in PBS (1.16% v/v) and given 6 and 12 hours after ICH induction, followed by twice daily doses for 72 hours. The sham group of animals was given PBS and DMSO (1.16% v/v) in the same manner. Mice were anesthetized with a single intraperitoneal dose of ketamine (90 mg/kg) and xylazine (5 mg/kg). […]

[2] = tested on: C57BL/6J mice subjected to ICH; experiment: Corner turn test (laterality index) after ICH; format: in vivo; settings: for corner turn test (laterality index): 1 mg/kg i.p. first at 6 h and 12 h after ICH, then twice daily for 72 hours, versus vehicle
Procedure: as §1
Mice were anesthetized with a single intraperitoneal dose of ketamine (90 mg/kg) and xylazine (5 mg/kg). Next, the mice were placed in a stereotactic frame (ASI Instruments, Inc., Warren, Mich., USA) and subjected to ICH using autologous blood infusion as previously described (Rynkowski M A et al, 2008, Nat Protoc 3: 122-128), Briefly, a 1-mm burr hole was drilled 2.3 mm lateral to the midline and 0.2 mm anterior to the bregma. Thirty μL of autologous whole blood were drawn from the tail artery into a capillary tube. A 30-gauge needle was then advanced stereotactically through the burr hole into the right striatum (coordinates: 0.2 mm anterior, 2.3 mm lateral to the bregma, 3.5 mm ventral). […]
Neurofunction and behavioral testing. Sensorimotor function was evaluated by means of the 28-point neurological function score, corner test and forelimb placing tests, which were performed pre-operatively and at 6, 24, 48 and 72 hour post-injury. Navigational memory was evaluated with the means of a Morris water-maze (MWM) test pre-operatively and at 72 hours post ICH. […]
Corner test. […] The number of right and left turns out of 10 total attempts was recorded. The laterality index (LI) and normalized LI were calculated. The laterality index (LI) was calculated for each mouse, according to the formula: LI=(Number of right turns—Number of left turns)/(Total number of turns). The LI for the day before surgery (LIBS) and each of the post surgery days was calculated and normalized using the formula: Normalized LI=(LI+2)/(LIBS+2). […]

[3] = 1 mg/kg i.p. 45 minutes prior to ICH, then twice daily, 72 hours after ICH, mean±SEM
[4] = then twice daily, 72 hours after ICH

Row | Compound | brain water content, ipsilateral basal ganglia [1, 3] [%] | brain water content, ipsilateral cortex [1, 3] | brain water content versus vehicle [1, 4] | water content in the contralateral cortex, the basal ganglia and cerebellum ([1]; pre-ICH dosing 1 mg/kg i.p., 72 hours, versus vehicle-treated and sham) | corner test performance (normalized laterality index) ([2]; 1 mg/kg i.p. 45 minutes prior to ICH, then twice daily, 72 hours after ICH) | corner turn test (laterality index) [2]
1 | NC(N)=NCCC[C@H](NC(=O)COCC(c1ccccc1)c1ccccc1)C(=O)O [C3aRA] | 77.43±0.43 | 77.56±0.26% and 77.57±0.26% | mildly decreased brain water content; also recorded: Trend towards decreased edema | not different | no significant deficits compared with sham animals | significant improvement at 48 hours
2 | Acetyl-Phe-[Orn-Pro-D-cyclohexylalanine-Trp-Arg] [C5aRA] |  |  | mildly decreased brain water content |  |  | significant improvement at 48 hours
